Assay results: ChEMBL document CHEMBL1770066, “A green expedient synthesis of pyridopyrimidine-2-thiones and their antitubercular activity” (2011)
Values after ≈ are worked out from the molar mass of the structure shown.

Experiments:
Format in all cases: functional
[1] = system: Mycobacterium tuberculosis; assay: Antituberculosis activity against Mycobacterium tuberculosis H37Rv by agar dilution method
[2] = system: Mycobacterium tuberculosis; assay: Ratio of MIC for ethambutol to compound for Mycobacterium tuberculosis H37Rv
[3] = system: Mycobacterium tuberculosis; assay: Ratio of MIC for ciprofloxacin to compound for Mycobacterium tuberculosis H37Rv

Row | SMILES | MIC [1] [µM] | Ratio [2] | Ratio [3]
1 | COc1ccc(/C=C2\CN(C)CC3=C2NC(=S)NC3c2ccc(OC)c(OC)c2)cc1OC (stereo not given) | 53.5 (≈ 25 µg/mL) |  | 
2 | COc1ccc(/C=C2\CN(Cc3ccccc3)CC3=C2NC(=S)NC3c2ccc(OC)c(OC)c2)cc1OC (stereo not given) | 46 (≈ 25 µg/mL) |  | 
3 | CN1CC2=C(N=C(S)NC2c2cccs2)/C(=C/c2cccs2)C1 (stereo not given) | 69.5 (≈ 25 µg/mL) |  | 
4 | CC(C)c1ccc(/C=C2\CN(C)CC3=C2NC(=S)NC3c2ccc(C(C)C)cc2)cc1 (stereo not given) | 57.9 (≈ 25 µg/mL) |  | 
5 | S=C1NC2=C(CN(Cc3ccccc3)C/C2=C\c2ccc(Cl)cc2Cl)C(c2ccc(Cl)cc2Cl)N1 (stereo not given) | 2.8 (≈ 1.57 µg/mL) | 2.7 | 1.7
6 | COc1ccc(OC)c(/C=C2\CN(C)CC3=C2NC(=S)NC3c2cc(OC)ccc2OC)c1 (stereo not given) | 53.5 (≈ 25 µg/mL) |  | 
7 | CC(C)c1ccc(/C=C2\CN(Cc3ccccc3)CC3=C2NC(=S)NC3c2ccc(C(C)C)cc2)cc1 (stereo not given) | 24.6 (≈ 12.5 µg/mL) |  | 
8 | CN1CC2=C(NC(=S)NC2c2cccc3ccccc23)/C(=C/c2cccc3ccccc23)C1 (stereo not given) | 55.9 (≈ 25 µg/mL) |  | 
9 | CN1CC2=C(N=C(S)NC2c2ccccc2)/C(=C/c2ccccc2)C1 (stereo not given) | 71.9 (≈ 25 µg/mL) |  | 
10 | COc1ccc(/C=C2\CN(Cc3ccccc3)CC3=C2NC(=S)NC3c2ccc(OC)cc2)cc1 (stereo not given) | 51.7 (≈ 25 µg/mL) |  | 
11 | CN1CC2=C(NC(=S)NC2c2c(Cl)cccc2Cl)/C(=C/c2c(Cl)cccc2Cl)C1 (stereo not given) | 5.6 (≈ 2.72 µg/mL) | 1.4 | 
12 | COc1ccccc1/C=C1\CN(C)CC2=C1NC(=S)NC2c1ccccc1OC (stereo not given) | 61.4 (≈ 25 µg/mL) |  | 
13 | CN1CC2=C(N=C(S)NC2c2ccc(Cl)cc2)/C(=C/c2ccc(Cl)cc2)C1 (stereo not given) | 30 (≈ 12.5 µg/mL) |  | 
14 | CN1CC2=C(NC(=S)NC2c2ccc3ccccc3c2)/C(=C/c2ccc3ccccc3c2)C1 (stereo not given) | 55.9 (≈ 25 µg/mL) |  | 
15 | CN1CC2=C(NC(=S)NC2c2ccc(F)cc2)/C(=C/c2ccc(F)cc2)C1 (stereo not given) | 32.6 (≈ 12.5 µg/mL) |  | 
16 | Fc1cccc(/C=C2\CN(Cc3ccccc3)CC3=C2NC(=S)NC3c2cccc(F)c2)c1 (stereo not given) | 6.8 (≈ 3.13 µg/mL) | 1.1 | 
17 | CN1CC2=C(NC(=S)NC2c2cccc(Br)c2)/C(=C/c2cccc(Br)c2)C1 (stereo not given) | 24.7 (≈ 12.5 µg/mL) |  | 
18 | S=C1NC2=C(CN(Cc3ccccc3)C/C2=C\c2ccccc2)C(c2ccccc2)N1 (stereo not given) | 59 (≈ 25 µg/mL) |  | 
19 | S=C1NC2=C(CN(Cc3ccccc3)C/C2=C\c2ccccc2Br)C(c2ccccc2Br)N1 (stereo not given) | 21.5 (≈ 12.5 µg/mL) |  | 
20 | CC[C@@H](CO)NCCN[C@@H](CC)CO [ETHAMBUTOL] | 7.6 (≈ 1.55 µg/mL) |  | 

Row | SMILES | MIC [1] [µM] | Ratio [2] | Ratio [3]
21 | CO[C@H]1/C=C/O[C@@]2(C)Oc3c(C)c(O)c4c(O)c(c(/C=N/N5CCN(C)CC5)c(O)c4c3C2=O)NC(=O)/C(C)=C\C=C\[C@H](C)[C@H](O)[C@@H](C)[C@@H](O)[C@@H](C)[C@H](OC(C)=O)[C@@H]1C [RIFAMPIN] | 0.1 (≈ 0.0823 µg/mL) |  | 
22 | CN(C)c1ccc(/C=C2\CN(Cc3ccccc3)CC3=C2NC(=S)NC3c2ccc(N(C)C)cc2)cc1 (stereo not given) | 49.1 (≈ 25 µg/mL) |  | 
23 | CN1CC2=C(NC(=S)NC2c2cccc(F)c2)/C(=C/c2cccc(F)c2)C1 (stereo not given) | 16.3 (≈ 6.25 µg/mL) |  | 
24 | Fc1ccc(/C=C2\CN(Cc3ccccc3)CC3=C2NC(=S)NC3c2ccc(F)cc2)cc1 (stereo not given) | 3.4 (≈ 1.56 µg/mL) | 2.2 | 1.4
25 | Cc1ccc(/C=C2\CN(C)CC3=C2N=C(S)NC3c2ccc(C)cc2)cc1 (stereo not given) | 66.6 (≈ 25 µg/mL) |  | 
26 | CN1CC2=C(NC(=S)NC2c2ccc(Br)cc2)/C(=C/c2ccc(Br)cc2)C1 (stereo not given) | 24.7 (≈ 12.5 µg/mL) |  | 
27 | COc1cc(/C=C2\CN(Cc3ccccc3)CC3=C2NC(=S)NC3c2cc(OC)c(OC)c(OC)c2)cc(OC)c1OC (stereo not given) | 41.4 (≈ 25 µg/mL) |  | 
28 | S=C1NC2=C(CN(Cc3ccccc3)C/C2=C\c2ccc(Cl)cc2)C(c2ccc(Cl)cc2)N1 (stereo not given) | 25.4 (≈ 12.5 µg/mL) |  | 
29 | Cc1ccccc1/C=C1\CN(C)CC2=C1NC(=S)NC2c1ccccc1C (stereo not given) | 66.6 (≈ 25 µg/mL) |  | 
30 | Cc1ccccc1/C=C1\CN(Cc2ccccc2)CC2=C1NC(=S)NC2c1ccccc1C (stereo not given) | 55.4 (≈ 25 µg/mL) |  | 
31 | COc1ccc(/C=C2\CN(C)CC3=C2N=C(S)NC3c2ccc(OC)cc2)cc1 (stereo not given) | 61.4 (≈ 25 µg/mL) |  | 
32 | CN1CC2=C(NC(=S)NC2c2ccc(Cl)cc2Cl)/C(=C/c2ccc(Cl)cc2Cl)C1 (stereo not given) | 12.9 (≈ 6.26 µg/mL) |  | 
33 | NNC(=O)c1ccncc1 [ISONIAZID] | 0.4 (≈ 0.0549 µg/mL) |  | 
34 | CN1CC2=C(NC(=S)NC2c2ccc(N(C)C)cc2)/C(=C/c2ccc(N(C)C)cc2)C1 (stereo not given) | 57.7 (≈ 25 µg/mL) |  | 
35 | S=C1NC2=C(CN(Cc3ccccc3)C/C2=C\c2cccc3ccccc23)C(c2cccc3ccccc23)N1 (stereo not given) | 47.7 (≈ 25 µg/mL) |  | 
36 | CN1CC2=C(N=C(S)NC2c2ccccc2Cl)/C(=C/c2ccccc2Cl)C1 (stereo not given) | 30 (≈ 12.5 µg/mL) |  | 
37 | COc1ccc(OC)c(/C=C2\CN(Cc3ccccc3)CC3=C2NC(=S)NC3c2cc(OC)ccc2OC)c1 (stereo not given) | 46 (≈ 25 µg/mL) |  | 
38 | Cc1ccc(/C=C2\CN(Cc3ccccc3)CC3=C2NC(=S)NC3c2ccc(C)cc2)cc1 (stereo not given) | 55.4 (≈ 25 µg/mL) |  | 
39 | S=C1NC2=C(CN(Cc3ccccc3)C/C2=C\c2ccccc2Cl)C(c2ccccc2Cl)N1 (stereo not given) | 25.4 (≈ 12.5 µg/mL) |  | 
